Activity calls are given as the source filed them. The rule behind the calls is not given here.
How the values were obtained:
[1] = Antioxidant activity of compound assessed as trolox equivalent of AAPH radical scavenging activity at 2 to 4 uM preincubated for 15 mins followed by AAPH addition and measured every 2 mins for 90 mins by ORAC-fluorescein assay; format: functional; conditions: dose 2-4 µM, time 105.0 min
[2] = biological target: Histone deacetylase 2 (Homo sapiens, UniProt Q92769); assay: Inhibition of recombinant HDAC2 (unknown origin) using Boc-Lys(Ac)-AMC as substrate pre-incubated for 1 hr followed by substrate addition and measured after 2 hrs by fluorescence based assay
Sequence of Histone deacetylase 2 (Q92769 whole entry): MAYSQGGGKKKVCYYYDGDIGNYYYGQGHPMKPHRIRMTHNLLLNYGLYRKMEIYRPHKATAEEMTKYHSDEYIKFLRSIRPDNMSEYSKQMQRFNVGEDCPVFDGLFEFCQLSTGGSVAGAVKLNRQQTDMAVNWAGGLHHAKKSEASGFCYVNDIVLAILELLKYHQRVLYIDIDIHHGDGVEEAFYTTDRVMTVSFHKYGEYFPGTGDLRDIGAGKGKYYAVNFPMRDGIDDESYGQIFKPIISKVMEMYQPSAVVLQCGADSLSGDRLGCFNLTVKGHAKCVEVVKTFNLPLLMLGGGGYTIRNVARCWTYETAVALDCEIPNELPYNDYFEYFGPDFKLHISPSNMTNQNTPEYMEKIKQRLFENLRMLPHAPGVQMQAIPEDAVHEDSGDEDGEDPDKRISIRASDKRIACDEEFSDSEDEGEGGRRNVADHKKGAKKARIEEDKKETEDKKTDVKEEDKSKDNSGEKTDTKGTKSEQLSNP

[3] = biological target: Histone deacetylase 4 (Homo sapiens, UniProt P56524); assay: Inhibition of recombinant HDAC4 (unknown origin) using Boc-Lys(trifluoroacetyl)-AMC as substrate pre-incubated for 1 hr followed by substrate addition and measured after 2 hrs by fluorescence based assay
Sequence of Histone deacetylase 4 (P56524 whole entry): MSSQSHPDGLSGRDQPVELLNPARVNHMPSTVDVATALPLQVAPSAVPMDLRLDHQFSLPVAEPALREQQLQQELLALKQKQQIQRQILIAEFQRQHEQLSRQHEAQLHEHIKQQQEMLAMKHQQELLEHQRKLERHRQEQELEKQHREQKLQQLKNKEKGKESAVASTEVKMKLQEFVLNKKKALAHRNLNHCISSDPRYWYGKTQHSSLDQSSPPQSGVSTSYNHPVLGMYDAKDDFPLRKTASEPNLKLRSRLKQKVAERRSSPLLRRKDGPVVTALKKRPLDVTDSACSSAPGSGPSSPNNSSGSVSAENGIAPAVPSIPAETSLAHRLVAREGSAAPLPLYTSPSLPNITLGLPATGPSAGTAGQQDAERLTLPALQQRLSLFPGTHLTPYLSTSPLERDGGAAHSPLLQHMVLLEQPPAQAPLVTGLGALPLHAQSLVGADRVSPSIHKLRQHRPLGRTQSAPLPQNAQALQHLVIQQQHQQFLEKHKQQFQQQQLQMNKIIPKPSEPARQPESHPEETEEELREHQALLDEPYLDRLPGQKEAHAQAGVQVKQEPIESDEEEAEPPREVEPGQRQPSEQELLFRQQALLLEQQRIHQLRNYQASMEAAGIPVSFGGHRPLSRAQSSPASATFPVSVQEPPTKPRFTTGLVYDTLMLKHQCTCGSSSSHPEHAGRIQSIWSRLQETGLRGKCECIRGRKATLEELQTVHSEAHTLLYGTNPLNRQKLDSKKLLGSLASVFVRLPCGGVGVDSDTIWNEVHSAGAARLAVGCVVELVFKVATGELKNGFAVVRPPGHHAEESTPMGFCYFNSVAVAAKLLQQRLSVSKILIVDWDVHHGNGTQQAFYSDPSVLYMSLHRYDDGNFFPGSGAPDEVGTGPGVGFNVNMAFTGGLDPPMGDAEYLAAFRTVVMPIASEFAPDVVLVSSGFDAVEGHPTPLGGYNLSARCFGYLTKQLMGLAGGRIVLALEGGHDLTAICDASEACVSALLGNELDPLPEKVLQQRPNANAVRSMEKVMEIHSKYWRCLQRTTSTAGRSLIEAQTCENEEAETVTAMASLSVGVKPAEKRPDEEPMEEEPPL

[4] = biological target: T1, Histone deacetylase 7 (Homo sapiens, UniProt Q8WUI4); assay: Inhibition of recombinant HDAC7 (unknown origin) using Boc-Lys(trifluoroacetyl)-AMC as substrate pre-incubated for 1 hr followed by substrate addition and measured after 2 hrs by fluorescence based assay
T1 sequence (Q8WUI4 whole entry): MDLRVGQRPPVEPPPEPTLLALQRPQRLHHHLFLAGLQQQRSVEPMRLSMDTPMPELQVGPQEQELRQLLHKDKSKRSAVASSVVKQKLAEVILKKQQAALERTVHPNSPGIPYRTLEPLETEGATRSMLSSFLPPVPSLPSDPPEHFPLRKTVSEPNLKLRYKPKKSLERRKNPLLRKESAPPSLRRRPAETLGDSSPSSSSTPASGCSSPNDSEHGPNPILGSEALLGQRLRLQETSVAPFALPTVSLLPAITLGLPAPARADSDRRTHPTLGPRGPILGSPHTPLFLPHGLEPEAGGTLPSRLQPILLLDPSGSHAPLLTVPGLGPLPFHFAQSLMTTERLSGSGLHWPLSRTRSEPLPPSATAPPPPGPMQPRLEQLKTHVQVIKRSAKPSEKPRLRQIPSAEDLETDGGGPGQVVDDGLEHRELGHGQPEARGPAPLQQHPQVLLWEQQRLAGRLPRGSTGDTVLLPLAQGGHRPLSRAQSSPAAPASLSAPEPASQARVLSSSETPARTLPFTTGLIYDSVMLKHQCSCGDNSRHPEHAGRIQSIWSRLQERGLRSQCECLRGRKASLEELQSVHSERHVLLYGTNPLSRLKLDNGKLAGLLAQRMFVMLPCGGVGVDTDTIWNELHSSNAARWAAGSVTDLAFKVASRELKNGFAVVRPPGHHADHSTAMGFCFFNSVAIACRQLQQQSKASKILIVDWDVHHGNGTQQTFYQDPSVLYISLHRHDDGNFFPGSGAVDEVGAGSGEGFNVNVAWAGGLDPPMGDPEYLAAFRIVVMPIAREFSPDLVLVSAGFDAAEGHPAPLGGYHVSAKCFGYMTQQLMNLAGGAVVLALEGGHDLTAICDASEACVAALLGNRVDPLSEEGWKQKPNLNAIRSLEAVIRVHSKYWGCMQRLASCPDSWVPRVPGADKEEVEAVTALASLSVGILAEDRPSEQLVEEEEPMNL

[5] = organism: Homo sapiens; assay: Selectivity ratio of IC50 for recombinant HDAC2 (unknown origin) to IC50 for recombinant HDAC6 (unknown origin)
[6] = organism: Homo sapiens; assay: Selectivity ratio of IC50 for recombinant HDAC4 (unknown origin) to IC50 for recombinant HDAC6 (unknown origin)
[7] = organism: Homo sapiens; assay: Selectivity ratio of IC50 for recombinant HDAC7 (unknown origin) to IC50 for recombinant HDAC6 (unknown origin)
[8] = Metal chelating activity assessed as compound-Cu2+ complex formation at 10 to 200 uM incubated for 2 mins followed by pyrocatechol violet addition and further incubated for 10 mins by microplate reader based assay; conditions: dose 10-200 µM, time 12.0 min
[9] = Metal chelating activity compound-Zn2+ complex formation at 10 to 200 uM preincubated for 2 mins followed by di-thizone addition by microplate reader based assay; conditions: dose 10-200 µM
[10] = tested on: N9; assay: Immunomodulatory activity in LPS-induced mouse N9 microglial cells assessed as increase in TREM2 expression at 0.1 to 5 uM incubated for 24 hrs by Western blot analysis; format: functional; conditions: dose 0.1-5 µM
[11] = tested on: N9; assay: Immunomodulatory activity in LPS-induced mouse N9 microglial cells assessed as increase in TGF-beta2 expression at 0.1 to 5 uM incubated for 24 hrs by Western blot analysis; format: functional; conditions: dose 0.1-5 µM
[12] = tested on: Mus musculus; assay: Anti-alzheimer activity against amyloid beta (25 to 35) induced working memory deficit in mouse assessed as increase in spontaneous alternation performance at 0.3 to 1 mg/kg, ip administered for 7 days and measured on day 8 by Y-maze test; format: functional, organism-based; conditions: dose 0.3-1 mg/kg, time 8.0 day

IC50 [2]	IC50 ([3]; read-out: IC50)	IC50 [4]	Ratio IC50 [5]	Ratio IC50 [6]	Ratio IC50 [7]	Activity [8]	Activity [9]	IC50 ([3]; read-out: pIC50 (converted))	SMILES	ORAC antioxidant capacity (Trolox equivalents) [1]	Activity [10]	Activity [11]	Activity [12]
2.85 µM	> 10 µM	> 10 µM	93	> 326	> 326	Active	Active	–	COc1ccc2[nH]cc(CCN(Cc3ccc(C(=O)NO)cc3)C(=O)/C=C/c3ccc(O)c(OC)c3)c2c1	2.1	Active	Active	Active
0.336 µM	3.43 µM	1.65 µM	30	306	148	Active	Active	3.39 µM	COc1ccc2c(c1)c(CCNC(C)=O)cn2Cc1ccc(C(=O)NO)cc1	1.6	inactive	inactive	–
